Measured values as given in patent US20240208968A1, “ALPHA V BETA 6 AND ALPHA V BETA 1 INTEGRIN INHIBITORS AND USES THEREOF” (DiCE Molecules SV, Inc., priority 2021, published 2024).
Where a name gives a salt, the structure may show the parent alone.

Experiments:
[1] = molecular target: αvβ1 (Homo sapiens, UniProt P05556+P06756); experiment: Solid Phase Integrin αvβ1 Assay; format: binding
Summary of the method: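 Compound competes for αvβ1 binding to immobilized TGFb1-LAP (1 µg/mL coat) in Mn2+ (1 mM MnCl2), 2% BSA binding buffer over 90 min at room temperature, integrin added at 0.2 µg/mL. Read-out: streptavidin-HRP/TMB; IC50 from Levenberg-Marquardt four-parameter fit.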

[2] = molecular target: αvβ6 (Homo sapiens, UniProt P06756+P18564); experiment: Solid Phase Integrin αvβ6 Assay; format: binding
αvβ6, sequence (P06756 31-992 limits assumed): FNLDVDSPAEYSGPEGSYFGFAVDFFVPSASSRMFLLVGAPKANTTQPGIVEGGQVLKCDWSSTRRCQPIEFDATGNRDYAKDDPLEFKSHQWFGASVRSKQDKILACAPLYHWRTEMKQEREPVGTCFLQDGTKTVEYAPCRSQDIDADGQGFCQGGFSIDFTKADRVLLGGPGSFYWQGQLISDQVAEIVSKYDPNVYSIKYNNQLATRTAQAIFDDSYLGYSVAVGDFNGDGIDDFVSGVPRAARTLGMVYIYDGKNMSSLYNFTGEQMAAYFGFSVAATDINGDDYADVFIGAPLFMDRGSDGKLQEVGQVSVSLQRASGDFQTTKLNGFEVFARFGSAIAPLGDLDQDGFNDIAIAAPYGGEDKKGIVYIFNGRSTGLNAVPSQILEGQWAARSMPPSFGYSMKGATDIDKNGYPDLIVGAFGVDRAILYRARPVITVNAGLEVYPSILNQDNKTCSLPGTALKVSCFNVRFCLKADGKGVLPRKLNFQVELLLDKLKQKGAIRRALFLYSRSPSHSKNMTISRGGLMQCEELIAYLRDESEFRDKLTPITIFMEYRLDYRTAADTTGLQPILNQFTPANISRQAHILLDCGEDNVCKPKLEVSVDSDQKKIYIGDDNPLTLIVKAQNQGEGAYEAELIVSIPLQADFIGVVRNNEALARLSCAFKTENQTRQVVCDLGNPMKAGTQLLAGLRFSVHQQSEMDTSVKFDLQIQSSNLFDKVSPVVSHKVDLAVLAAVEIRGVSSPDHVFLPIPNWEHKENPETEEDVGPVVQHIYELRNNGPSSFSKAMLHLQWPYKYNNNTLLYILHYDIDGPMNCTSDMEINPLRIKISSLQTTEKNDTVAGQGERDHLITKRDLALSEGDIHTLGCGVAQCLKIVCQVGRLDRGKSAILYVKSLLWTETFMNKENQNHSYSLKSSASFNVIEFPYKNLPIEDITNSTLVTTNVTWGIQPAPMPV
αvβ6, sequence (P18564 22-707 limits assumed): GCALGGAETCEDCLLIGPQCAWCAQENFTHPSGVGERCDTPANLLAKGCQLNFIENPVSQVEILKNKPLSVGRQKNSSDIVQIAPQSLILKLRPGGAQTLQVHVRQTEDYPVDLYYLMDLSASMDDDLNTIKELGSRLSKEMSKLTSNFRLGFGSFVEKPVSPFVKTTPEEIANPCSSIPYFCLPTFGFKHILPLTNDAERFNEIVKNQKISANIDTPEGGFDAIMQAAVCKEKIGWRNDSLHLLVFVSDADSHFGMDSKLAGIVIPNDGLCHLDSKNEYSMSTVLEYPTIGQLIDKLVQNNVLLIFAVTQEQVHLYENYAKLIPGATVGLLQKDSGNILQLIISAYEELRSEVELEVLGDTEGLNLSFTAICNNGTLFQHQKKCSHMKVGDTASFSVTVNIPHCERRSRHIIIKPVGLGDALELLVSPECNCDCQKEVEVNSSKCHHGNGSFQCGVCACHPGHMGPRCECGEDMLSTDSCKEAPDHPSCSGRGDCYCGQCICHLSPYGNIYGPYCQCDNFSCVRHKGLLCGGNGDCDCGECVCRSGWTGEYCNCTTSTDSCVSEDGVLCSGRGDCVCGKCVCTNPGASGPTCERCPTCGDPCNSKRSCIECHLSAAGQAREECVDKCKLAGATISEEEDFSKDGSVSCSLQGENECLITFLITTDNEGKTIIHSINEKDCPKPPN
Summary of the method: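 Inhibition of αvβ6 binding to immobilized recombinant TGFb1-LAP (1 μg/mL coating), 1 h at room temperature with 1 mM MnCl2 in BSA/TBST buffer, integrin diluted to 0.2 μg/mL before addition. Streptavidin-HRP/TMB read-out; four-parameter logistic fitting gave IC50.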

αvβ1, sequence (P06756 31-992 limits assumed): as the sequence (P06756 31-992 limits assumed) above
αvβ1, sequence (P05556 21-728 limits assumed): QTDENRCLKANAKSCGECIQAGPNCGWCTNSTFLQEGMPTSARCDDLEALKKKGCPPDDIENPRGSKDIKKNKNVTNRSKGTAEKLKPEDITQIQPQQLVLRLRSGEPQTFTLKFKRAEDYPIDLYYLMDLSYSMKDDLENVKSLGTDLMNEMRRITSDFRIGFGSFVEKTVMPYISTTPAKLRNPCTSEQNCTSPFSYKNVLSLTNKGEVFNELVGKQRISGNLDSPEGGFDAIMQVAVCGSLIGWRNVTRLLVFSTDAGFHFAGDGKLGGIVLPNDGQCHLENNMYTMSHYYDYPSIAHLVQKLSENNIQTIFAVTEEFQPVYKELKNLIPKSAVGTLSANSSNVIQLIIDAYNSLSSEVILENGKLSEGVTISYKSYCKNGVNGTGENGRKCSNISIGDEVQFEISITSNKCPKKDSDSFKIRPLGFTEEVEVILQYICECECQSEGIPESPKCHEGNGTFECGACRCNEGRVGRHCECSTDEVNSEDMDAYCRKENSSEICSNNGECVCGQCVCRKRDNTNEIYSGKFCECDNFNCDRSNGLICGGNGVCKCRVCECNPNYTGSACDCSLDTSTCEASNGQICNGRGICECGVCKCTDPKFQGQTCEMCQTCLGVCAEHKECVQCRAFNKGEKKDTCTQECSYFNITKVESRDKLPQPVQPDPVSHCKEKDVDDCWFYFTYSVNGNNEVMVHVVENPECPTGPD

Row | IC50 [1] [nM] | IC50 [2] [nM] | SMILES
1 | < 100 | < 100 | O=C(NC[C@H](Nc1ccnc2ccccc12)C(=O)O)[C@@H]1CCCN(CCCc2ccc3c(n2)NCCC3)C1 [Compound 273, (S)-2-(quinolin-4-ylamino)-3-((R)-1-(3-(5,6,7,8-tetrahydro-1,8-naphthyridin-2-yl)propyl)piperidine-3-carboxamido)propanoic acid]
2 | < 100 | < 100 | O=C(NC[C@H](NS(=O)(=O)C1CCCCC1)C(=O)O)[C@@H]1CCCN(CCCc2ccc3c(n2)NCCC3)C1 [Compound 274, (S)-2-(cyclohexanesulfonamido)-3-((R)-1-(3-(5,6,7,8-tetrahydro-1,8-naphthyridin-2-yl)propyl)piperidine-3-carboxamido)propanoic acid hydrochloride]
3 | 100 to 1000 | < 100 | O=C(NC[C@H](NS(=O)(=O)c1ccc2c(c1)CCC2)C(=O)O)[C@@H]1CCCN(CCCc2ccc3c(n2)NCCC3)C1 [Compound 275, (2S)-2-(indan-5-ylsulfonylamino)-3-[[(3R)-1-[3-(5,6,7,8-tetrahydro-1,8-naphthyridin-2-yl)propyl]piperidine-3-carbonyl]amino]propanoic acid]
4 | < 100 | < 100 | O=C(NC[C@H](Nc1ncnc2ccsc12)C(=O)O)[C@@H]1CCCN(CCCc2ccc3c(n2)NCCC3)C1 [Compound 276, (2S)-3-[[(3R)-1-[3-(5,6,7,8-tetrahydro-1,8-naphthyridin-2-yl)propyl]piperidine-3-carbonyl]amino]-2-(thieno[3,2-d]pyrimidin-4-ylamino)propanoic acid]
5 | < 100 | < 100 | Cc1csc2c(N[C@@H](CNC(=O)[C@@H]3CCCN(CCCc4ccc5c(n4)NCCC5)C3)C(=O)O)ncnc12 [Compound 277, (2S)-2-[(7-methylthieno[3,2-d]pyrimidin-4-yl)amino]-3-[[(3R)-1-[3-(5,6,7,8-tetrahydro-1,8-naphthyridin-2-yl)propyl]piperidine-3-carbonyl]amino]propanoic acid]
6 | < 100 | < 100 | O=C(NC[C@H](Nc1ncnc2cc(F)c(F)cc12)C(=O)O)[C@@H]1CCCN(CCCc2ccc3c(n2)NCCC3)C1 [Compound 278, (2S)-2-[(6,7-difluoroquinazolin-4-yl)amino]-3-[[(3R)-1-[3-(5,6,7,8-tetrahydro-1,8-naphthyridin-2-yl)propyl]piperidine-3-carbonyl]amino]propanoic acid]
7 | < 100 | < 100 | O=C(NC[C@H](Nc1ncnc2sccc12)C(=O)O)[C@@H]1CCCN(CCCc2ccc3c(n2)NCCC3)C1 [Compound 279, (S)-3-((R)-1-(3-(5,6,7,8-tetrahydro-1,8-naphthyridin-2-yl)propyl)piperidine-3-carboxamido)-2-(thieno[2,3-d]pyrimidin-4-ylamino)propanoic acid]
8 | < 100 | < 100 | Cc1csc2ncnc(N[C@@H](CNC(=O)[C@@H]3CCCN(CCCc4ccc5c(n4)NCCC5)C3)C(=O)O)c12 [Compound 280, (S)-2-((5-methylthieno[2,3-d]pyrimidin-4-yl)amino)-3-((R)-1-(3-(5,6,7,8-tetrahydro-1,8-naphthyridin-2-yl)propyl)piperidine-3-carboxamido)propanoic acid]
9 | < 100 | < 100 | O=C(NC[C@H](Nc1nc2ccccc2s1)C(=O)O)[C@@H]1CCCN(CCCc2ccc3c(n2)NCCC3)C1 [Compound 281, (2S)-2-(1,3-benzothiazol-2-ylamino)-3-[[(3R)-1-[3-(5,6,7,8-tetrahydro-1,8-naphthyridin-2-yl)propyl]piperidine-3-carbonyl]amino]propanoic acid]
10 | < 100 | < 100 | O=C(NC[C@H](Nc1ncnc2cc(C(F)(F)F)ccc12)C(=O)O)[C@@H]1CCCN(CCCc2ccc3c(n2)NCCC3)C1 [Compound 282, (S)-3-((R)-1-(3-(5,6,7,8-tetrahydro-1,8-naphthyridin-2-yl)propyl)piperidine-3-carboxamido)-2-((7-(trifluoromethyl)quinazolin-4-yl)amino)propanoic acid hydrochloride]
11 | < 100 | < 100 | O=C(NC[C@H](Nc1cc(C(F)(F)F)ncn1)C(=O)O)[C@@H]1CCCN(CCCc2ccc3c(n2)NCCC3)C1 [Compound 283, (2S)-3-[[(3R)-1-[3-(5,6,7,8-tetrahydro-1,8-naphthyridin-2-yl)propyl]piperidine-3-carbonyl]amino]-2-[[6-(trifluoromethyl)pyrimidin-4-yl]amino]propanoic acid]
12 | < 100 | < 100 | O=C(NC1CCCCC1)N[C@@H](CNC(=O)[C@@H]1CCCN(CCCc2ccc3c(n2)NCCC3)C1)C(=O)O [Compound 284, (S)-2-(3-cyclohexylureido)-3-((R)-1-(3-(5,6,7,8-tetrahydro-1,8-naphthyridin-2-yl)propyl)piperidine-3-carboxamido)propanoic acid]
13 | < 100 | < 100 | O=C(N[C@@H](CNC(=O)[C@@H]1CCCN(CCCc2ccc3c(n2)NCCC3)C1)C(=O)O)C1CC2CCC1CC2 (stereo partly drawn) [Compound 285, (2S)-2-(bicyclo[22.2]octane-2-carboxamido)-3-((R)-1-(3-(5,6,7,8-tetrahydro-1,8-naphthyridin-2-yl)propyl)piperidine-3-carboxamido)propanoic acid]
14 | > 1000 | > 1000 | O=C(O)C[C@H](NC(=O)[C@H]1CCCN(C(=O)CCc2ccc3c(n2)NCCC3)C1)c1ccccc1 [Compound 286, (S)-3-phenyl-3-((S)-1-(3-(5,6,7,8-tetrahydro-1,8-naphthyridin-2-yl)propanoyl)piperidine-3-carboxamido)propanoic acid hydrochloride]
15 | > 1000 | > 1000 | O=C(O)C[C@H](NC(=O)[C@H]1CCCN(CCCCc2ccc3c(n2)NCCC3)C1)c1ccccc1 [Compound 287, (S)-3-phenyl-3-((S)-1-(4-(5,6,7,8-tetrahydro-1,8-naphthyridin-2-yl)butyl)piperidine-3-carboxamido)propanoic acid]
16 | 100 to 1000 | < 100 | O=C(O)C[C@H](NC(=O)[C@@H]1CCCN(CCCCc2ccc3c(n2)NCCC3)C1)c1ccccc1 [Compound 288, (S)-3-phenyl-3-((R)-1-(4-(5,6,7,8-tetrahydro-1,8-naphthyridin-2-yl)butyl)piperidine-3-carboxamido)propanoic acid hydrochloride]
17 | 100 to 1000 | 100 to 1000 | O=C(O)C[C@H](NC(=O)[C@@H]1CCCN(C(=O)CCc2ccc3c(n2)NCCC3)C1)c1ccccc1 [Compound 289, (S)-3-phenyl-3-((R)-1-(3-(5,6,7,8-tetrahydro-1,8-naphthyridin-2-yl)propanoyl)piperidine-3-carboxamido)propanoic acid hydrochloride]
18 | > 1000 | 100 to 1000 | O=C(O)C[C@H](NC(=O)[C@@H]1CCCN(CCc2ccc3c(n2)NCCC3)C1)c1ccccc1 [Compound 290, (S)-3-phenyl-3-((R)-1-(2-(5,6,7,8-tetrahydro-1,8-naphthyridin-2-yl)ethyl)piperidine-3-carboxamido)propanoic acid]
19 | 100 to 1000 | < 100 | O=C(O)C[C@H](NC(=O)[C@@H]1CN(CCCc2ccc3c(n2)NCCC3)CC(F)(F)C1)c1ccccc1 [Compound 291-A, (3S)-3-(5,5-difluoro-1-(3-(5,6,7,8-tetrahydro-1,8-naphthyridin-2-yl)propyl)piperidine-3-carboxamido)-3-phenylpropanoic acid]
20 | 100 to 1000 | 100 to 1000 | O=C(O)C[C@H](NC(=O)[C@H]1CN(CCCc2ccc3c(n2)NCCC3)CC(F)(F)C1)c1ccccc1 [Compound 291-B, (3S)-3-(5,5-difluoro-1-(3-(5,6,7,8-tetrahydro-1,8-naphthyridin-2-yl)propyl)piperidine-3-carboxamido)-3-phenylpropanoic acid]
21 | > 1000 | > 1000 | O=C(O)C[C@H](NC[C@@H]1CCCN(CCCc2ccc3c(n2)NCCC3)C1)c1ccccc1 [Compound 292, (S)-3-phenyl-3-(S)-1-(3-(5,6,7,8-tetrahydro-1,8-naphthyridin-2-yl)propyl)piperidin-3-yl)methyl)amino)propanoic acid hydrochloride]
22 | > 1000 | > 1000 | CN(C[C@@H]1CCCN(CCCc2ccc3c(n2)NCCC3)C1)[C@@H](CC(=O)O)c1ccccc1 [Compound 293, (S)-3-(methyl(((R)-1-(3-(5,6,7,8-tetrahydro-1,8-naphthyridin-2-yl)propyl)piperidin-3-yl)methyl)amino)-3-phenylpropanoic acid hydrochloride]
23 | > 1000 | > 1000 | O=C(O)C[C@H](OC[C@@H]1CCCN(CCCc2ccc3c(n2)NCCC3)C1)c1ccccc1 [Compound 294, (S)-3-phenyl-3-(((R)-1-(3-(5,6,7,8-tetrahydro-1,8-naphthyridin-2-yl)propyl)piperidin-3-yl)methoxy)propanoic acid]
24 | < 100 | < 100 | O=C(O)C[C@H](CN[C@@H]1CCCN(CCCc2ccc3c(n2)NCCC3)C1)c1ccccc1 [Compound 295, (S)-3-phenyl-4-(((R)-1-(3-(5,6,7,8-tetrahydro-1,8-naphthyridin-2-yl)propyl)piperidin-3-yl)amino)butanoic acid]
25 | 100 to 1000 | > 1000 | CN(C[C@@H](CC(=O)O)c1ccccc1)[C@@H]1CCCN(CCCc2ccc3c(n2)NCCC3)C1 [Compound 296, (S)-4-(methyl((R)-1-(3-(5,6,7,8-tetrahydro-1,8-naphthyridin-2-yl)propyl)piperidin-3-yl)amino)-3-phenylbutanoic acid]
26 | < 100 | < 100 | O=C(O)CC(CO[C@@H]1CCCN(CCCc2ccc3c(n2)NCCC3)C1)c1ccccc1 (stereo partly drawn) [Compound 297, 3-phenyl-4-(((R)-1-(3-(5,6,7,8-tetrahydro-1,8-naphthyridin-2-yl)propyl)piperidin-3-yl)oxy)butanoic acid hydrochloride]
